Assay results as given in US7576241B2, “Derivatives of amidines, their preparation, their use as medicaments and the pharmaceutical compositions containing them” (Ipsen Pharma S.A.S., priority 1998, dated 2009).

A melting point of 145 to 155 °C was found for NC(=Nc1ccc(CCNC(=O)/C=C/c2ccccc2O)cc1)c1cccs1 [Example 39, (E)-N-(4-{[amino(2-thienyl)methylidene]amino}phenethyl)-3-(2-hydroxyphenyl)-2-propenamide] in this work.
A melting point of 196.4 to 197.6 °C was found for COc1cc(/C=C/C(=O)NCCc2ccc(N=C(N)c3cccs3)cc2)cc(OC)c1O [Example 42, (E)-N-(4-{[amino(2-thienyl)methylidene]amino}phenethyl)-3-(4-hydroxy-3,5-dimethoxyphenyl)-2-propenamide] in this work.
A melting point of 237.8 to 239 °C was found for CC(=O)Nc1ccc(CNCCc2ccc(N=C(N)c3cccs3)cc2)cc1 [Example 58, N-(4-{[(4-{[amino(2-thienyl)methylidene]amino}phenethyl)-amino]methyl}phenyl)acetamide] in this work.
With NC(=Nc1ccc(CCNCc2ccc3cccc(O)c3n2)cc1)c1cccs1 [Example 59, N′-[4-(2-{[(8-hydroxy-2-quinolinyl)methyl]amino}ethyl)phenyl]-2-thiophenecarboximidamide] the melting point was > 230 °C.
A melting point of 151 to 153 °C was found for I.NC(=Nc1ccc(CCNCC=Cc2ccccc2)cc1)c1cccs1 [Example 60, N′-[4-(2-{[3-phenyl-2-propenyl]amino}ethyl)phenyl]-2-thiophenecarboximidamide hydroiodide] in this work.
A melting point of 174 to 176 °C was found for COc1cc(C=CCNCCc2ccc(N=C(N)c3cccs3)cc2)ccc1O.O=C(O)/C=C/C(=O)O.O=C(O)/C=C/C(=O)O [Example 61, N′-[4-(2-{[3-(4-hydroxy-3-methoxyphenyl)-2-propenyl]amino}ethyl)phenyl]-2-thiophenecarboximidamide difumarate] in this work.
A melting point of 182 to 184 °C was found for COc1cc(C=CCNCCc2ccc(N=C(N)c3cccs3)cc2)cc(OC)c1O.Cl.Cl [Example 62, N′-[4-(2-{[3-(4-hydroxy-3,5-dimethoxyphenyl)-2-propenyl]amino}ethyl)phenyl]-2-thiophenecarboximidamide dihydrochloride] in this work.
For COc1cc(O)c(CNCCc2ccc(N=C(N)c3cccs3)cc2)c(OC)c1 [Example 64, N′-(4-{2-[(2-hydroxy-4,6-dimethoxybenzyl)amino]ethyl}phenyl)-2-thiophenecarboximidamide], the melting point was > 230 °C.
